Laboratory results as given in patent US20240299446A1 (priority 2023, published 2024).
“Also recorded” adds a separate entry of the source. Marks after values point to notes of the source that are not given here.

How the values were obtained:
ovariectomy (OVX) rats [1] = test: Femur bone mineral density (DEXA), breaking force and mineral content in ovariectomized rats; format: in vivo, Sprague-Dawley rats; settings: for BMD: femur
Method: Using dual energy X-ray absorptionmetry (DEXA; Prodigy Advance, Donga imaging, Korea), the bone mineral density (BMD) of the femur was measured. Immediately after BMD measurement, the femur was subjected to mechanical test at room temperature using a material testing machine (MZ500D; Maruto, Tokyo, Japan). For stabilization, the mid-diaphysis of the thigh was placed on two supports at an interval of 4 mm on a test device. A three-point bending test was performed in front and rear directions at the midpoint between the two supports. Breaking force was measured using software (CTR win, Ver. 1.05) to measure bone strength. […] Then, the thigh was placed at 800° C. for 16 hours, and the weight of the ash was measured. […] Calcium and phosphorus contents were measured using an atomic absorption spectrophotometer (PerkinElmer; A Analyst 100 Spectrophotometer, Boston, USA).

ovariectomy (OVX) rats [2] = test: Blood markers  (17β-estradiol, osteocalcin, CTx) in ovariectomized rats; format: in vivo, Sprague-Dawley rats; settings: for C-terminal telopeptide: serum CTx
Method: Osteocalcin levels were measured using a sandwich ELISA kit (Biomedical Technologies Inc., Stoughton, USA), while CTx levels were measured using a serum RatLaps ELISA kit (IDS Inc., Fountain Hills, USA).

ovariectomy (OVX) rats [3] = test: as above; format: in vivo, Sprague-Dawley rats; settings: for blood 17β-estradiol reduction by ovariectomy: OVX rats; for Estradiol: serum 17β-estradiol, 12 weeks after ovariectomy, mean ± SD, 5 rats
ovariectomy (OVX) rats [4] = test: Hematological analysis in ovariectomized rats; format: in vivo, Sprague-Dawley rats
Method: Blood samples were collected at 12 weeks post-surgery.
Hematological experiments were performed using T-540 Coulter Counter (Coulter Electronics Inc., Hialeah, USA) and ADVIA 120 Hematology System (Bayer Healthcare LLC, Tarrytown, USA). White blood cells (WBCs), differential leukocyte counts, hematocrit, red blood cells (RBCs), mean corpuscular volume (MCV), mean corpuscular hemoglobin (MCH), mean corpuscular hemoglobin concentration (MCHC), and platelet count were subjected to analysis, respectively.

ovariectomy (OVX) rats [5] = test: Change in weight of organs in ovariectomized rats; format: in vivo, Sprague-Dawley rats
Method: 12 week old female SPF Sprague-Dawley rats (body weight: 250 g; n=15) were purchased from the Korean Laboratory Animals Center (Eumseong, South Korea). Breeding conditions were as follows: temperature, 23+3° C.; relative humidity, 55+10%; lighting time, 12 hours (08:00-20:00); ventilation frequency, 10-20 changes/h; illumination, 150-300 lux. The temperature and humidity were measured using a hygrometer in units of time, and there were no variables that could affect the experimental results. The animals were fed normal rodent feed and purified water.
The experimental animals were randomly divided into three groups. After adaptation, bilateral laparotomy (sham) or bilateral ovariectomy (OVX) was performed on the rats.
Changes in the body weight and feeding and water intake were measured at a regular interval.

ovariectomy (OVX) rats [6] = test: Blood biochemical analysis in ovariectomized rats; settings: for bone growth marker ALP: OVX rats, serum
Method: Blood samples were collected at 12 weeks post-surgery. Animals were deprived of food for 16 hours and then anesthetized prior to blood sampling (Zoletile 50, Virbac, Korea). 0.5 mL of blood was collected from the abdominal artery and stored at 4° C. in a refrigerator.
A portion of the blood was used for hematological experiments, and the remaining blood was centrifuged at 3,000 rpm for 10 minutes to obtain serum. The serum was used for blood biochemical experiments and bone metabolism markers 17β-estradiol, osteocalcin and CTx analysis.
The parameters measured for blood biochemical analysis (Ciba-Corning 644 Na/K/Cl Analyzer, Ciba-Corning, Medfield, USA) were as follows: alanine aminotransferase (ALT), aspartate aminotransferase (AST), alkaline phosphatase (ALP), blood urea nitrogen (BUN), glucose, triglycerides (TG), total cholesterol (TC), high-density lipoproteins (HDL), low-density lipoproteins (LDL), total proteins (TP), albumin, calcium and phosphorus.

[7] = test system: human colo 205 rectal cancer cells; test: Rectal cancer animal experiment, Colo205 xenograft model; format: in vivo; settings: for MTV (n) Day 28: median tumor volume; for Deaths NTR: non-treatment-related deaths; for % TGI: percent tumor growth inhibition compared to Group 1 (vehicle), Day 28, 0.83 mg/kg po; for Deaths TR: treatment-related deaths
Method: Using human colo 205 rectal cancer cells as xenograft model, clinical experiments were performed with adenocarcinoma nude mice for 28 days. In this regard, the experimental method and usage are shown in Table 8 (Protocol Design for the Colo205-e347 Study) and Table 9 (Final treatment regimen at completion of the study) below.

multiple myeloma (MM) = test: Multiple myeloma animal experiment; format: in vivo, 5TGM1-grafted NSG mice
[8] = femur ash, reduced by ovariectomy
[9] = DEXA, treatment for 12 weeks after ovariectomy, mean ± SD, 5 rats
[10] = OVX rats, increased after ovariectomy
[11] = 12 weeks after ovariectomy, mean ± SD, 5 rats
[12] = serum, 12 weeks after ovariectomy, mean ± SD, 5 rats
[13] = blood at 12 weeks post-surgery, mean ± SD, 5 rats
[14] = OVX rats, treatment for 12 weeks after ovariectomy, mean ± SD, 5 rats
[15] = serum at 12 weeks post-surgery, mean ± SD, 5 rats

Sigma Anti-bonding Molecule Calcium Carbonate [SAC, reference compound]
calcium (ovariectomy (OVX) rats [1]; [8]): not significantly different from the Sham group | BMD (ovariectomy (OVX) rats [1]; [9]): 0.228 ± 0.012 g/cm² | C-terminal telopeptide / CTx (ovariectomy (OVX) rats [2]; [10]): quite reduced | osteocalcin (ovariectomy (OVX) rats [2]; [10]): considerably reduced | C-terminal telopeptide (ovariectomy (OVX) rats [2]; [11]): 4.360 ± 0.495^a ng/ml | osteocalcin (ovariectomy (OVX) rats [2]; [12]): 3.558 ± 0.154^ac ng/mL | blood 17β-estradiol reduction by ovariectomy (ovariectomy (OVX) rats [3]): quite recovered | Estradiol (ovariectomy (OVX) rats [3]): 4.217 ± 0.247^a pg/ml | Basophils (ovariectomy (OVX) rats [4]; [13]): 0.02 ± 0.04 9% | Eosinophils (ovariectomy (OVX) rats [4]; [13]): 5.04 ± 3.88% | Hematocrit (ovariectomy (OVX) rats [4]; [13]): 43.94 ± 2.18% | Lymphocytes (ovariectomy (OVX) rats [4]; [13]): 70.36 ± 8.78% | Mean corpuscular hemoglobin (ovariectomy (OVX) rats [4]; [13]): 30.50 ± 0.75 pg | Mean corpuscular hemoglobin concentration (ovariectomy (OVX) rats [4]; [13]): 57.14 ± 0.76 g/dL | Mean corpuscular volume (ovariectomy (OVX) rats [4]; [13]): 53.44 ± 1.24 fL | Monocytes (ovariectomy (OVX) rats [4]; [13]): 2.50 ± 1.44% | Neutrophils (ovariectomy (OVX) rats [4]; [13]): 21.21 ± 6.19% | Platelet (ovariectomy (OVX) rats [4]; [13]): 1297.0 ± 91.27 10^3/mm^3 | Red blood cell (ovariectomy (OVX) rats [4]; [13]): 8.23 ± 0.55 10^6/µL | White blood cell (ovariectomy (OVX) rats [4]; [13]): 4.84 ± 1.17 10^3/μl | Adrenal gland Left weight (ovariectomy (OVX) rats [5]; [14]): 0.0094 ± 0.0014 g | Adrenal gland Right weight (ovariectomy (OVX) rats [5]; [14]): 0.0094 ± 0.0014 g | Body weight (ovariectomy (OVX) rats [5]; [14]): 371.36 ± 9.97 g | Brain weight (ovariectomy (OVX) rats [5]; [14]): 0.5526 ± 0.02 | Femur Left weight (ovariectomy (OVX) rats [5]; [14]): 0.2935 ± 0.02 g | Femur Right weight (ovariectomy (OVX) rats [5]; [14]): 0.2902 ± 0.02 g | Kidney: Left weight (ovariectomy (OVX) rats [5]; [14]): 0.2687 ± 0.01 g | Kidney: Right weight (ovariectomy (OVX) rats [5]; [14]): 0.2626 ± 0.02 g | Liver weight (ovariectomy (OVX) rats [5]; [14]): 2.1820 ± 0.15 g | Pituitary weight (ovariectomy (OVX) rats [5]; [14]): 4.2 ± 1 mg | Spleen weight (ovariectomy (OVX) rats [5]; [14]): 0.1856 ± 0.02 g | Uterus weight (ovariectomy (OVX) rats [5]; [14]): 0.0444 ± 0.02 g | Vagina weight (ovariectomy (OVX) rats [5]; [14]): 0.0575 ± 0.02 g | bone growth marker ALP (ovariectomy (OVX) rats [6]): recovered to a normal level | ALP (ovariectomy (OVX) rats [6]; [15]): 108.2 ± 20.7 IU/l | Albumin (ovariectomy (OVX) rats [6]; [15]): 2.7 ± 0.1 g/dL | BUN (ovariectomy (OVX) rats [6]; [15]): 9.2 ± 2.4 mg/dL | GOT (ovariectomy (OVX) rats [6]; [15]): 148.0 ± 30.4 IU/l | GPT (ovariectomy (OVX) rats [6]; [15]): 22.4 ± 4.0 IU/l | Glucose (ovariectomy (OVX) rats [6]; [15]): 112.4 ± 7.7 mg/dL | HDL (ovariectomy (OVX) rats [6]; [15]): 23.8 ± 5.2 mg/dL | LDL-C (ovariectomy (OVX) rats [6]; [15]): 8.0 ± 5.2 mg/dL | Phosphorus (ovariectomy (OVX) rats [6]; [15]): 4.1 ± 0.6 mg/dL | TC (ovariectomy (OVX) rats [6]; [15]): 73.0 ± 17.3 mg/dL | TG (ovariectomy (OVX) rats [6]; [15]): 20.6 ± 7.7 mg/dL | TP (ovariectomy (OVX) rats [6]; [15]): 4.7 ± 0.2 | calcium (ovariectomy (OVX) rats [6]; [15]): 6.7 ± 0.4 mg/dL | Mean BW Nadir ([7]; lowest group mean body weight as % change from Day 1, — indicates no decrease in mean body weight was observed): −0.4% Day 2 | MTV (n) Day 28 ([7]; 0.83 mg/kg po): 896 (9) mm^3 | Deaths NTR ([7]; 0.83 mg/kg po): 1 | Regressions CR ([7]; number of complete regressions, 0.83 mg/kg po): 0 | Regressions PR ([7]; number of partial regressions, 0.83 mg/kg po): 0 | % TGI [7]: 4% | Deaths TR ([7]; 0.83 mg/kg po): 0 | Regressions TFS ([7]; tumor free survivors at end of study, 0.83 mg/kg po): 0

Sigma Anti-bonding Molecule Calcium gluconate [SAC gluconate]
Phosphorus (ovariectomy (OVX) rats [1]; [8]): completely recovered | calcium (ovariectomy (OVX) rats [1]; [8]): completely recovered | BMD (ovariectomy (OVX) rats [1]; [9]): 0.238 ± 0.011 g/cm² | BMD (ovariectomy (OVX) rats [1]; reduced by ovariectomy): completely recovered; also recorded: improved BMD | femoral breaking force (ovariectomy (OVX) rats [1]; three-point bending test, reduced by ovariectomy): completely recovered | C-terminal telopeptide / CTx (ovariectomy (OVX) rats [2]; [10]): also reduced; also recorded: recovered to normal levels | osteocalcin (ovariectomy (OVX) rats [2]; [10]): recovered to normal levels | C-terminal telopeptide (ovariectomy (OVX) rats [2]; [11]): 4.340 ± 0.395^a ng/ml | osteocalcin (ovariectomy (OVX) rats [2]; [12]): 3.458 ± 0.254^ac ng/mL | blood 17β-estradiol reduction by ovariectomy (ovariectomy (OVX) rats [3]): quite recovered | Estradiol (ovariectomy (OVX) rats [3]): 4.417 ± 0.347^a pg/ml | Eosinophils (ovariectomy (OVX) rats [4]; after ovariectomy): significantly increased | Basophils (ovariectomy (OVX) rats [4]; [13]): 0.03 ± 0.04 9% | Eosinophils (ovariectomy (OVX) rats [4]; [13]): 5.06 ± 2.88% | Hematocrit (ovariectomy (OVX) rats [4]; [13]): 44.94 ± 1.18% | Lymphocytes (ovariectomy (OVX) rats [4]; [13]): 73.36 ± 3.78% | Mean corpuscular hemoglobin (ovariectomy (OVX) rats [4]; [13]): 32.50 ± 1.75 pg | Mean corpuscular hemoglobin concentration (ovariectomy (OVX) rats [4]; [13]): 57.54 ± 1.76 g/dL | Mean corpuscular volume (ovariectomy (OVX) rats [4]; [13]): 54.44 ± 1.24 fL | Monocytes (ovariectomy (OVX) rats [4]; [13]): 2.60 ± 1.04% | Neutrophils (ovariectomy (OVX) rats [4]; [13]): 22.21 ± 5.19% | Platelet (ovariectomy (OVX) rats [4]; [13]): 1397.0 ± 81.27 10^3/mm^3 | Red blood cell (ovariectomy (OVX) rats [4]; [13]): 8.33 ± 0.45 10^6/µL | White blood cell (ovariectomy (OVX) rats [4]; [13]): 4.94 ± 2.17 10^3/μl | weights of the organs (ovariectomy (OVX) rats [5]; OVX rats): does not significantly affect the weights of the organs | Adrenal gland Left weight (ovariectomy (OVX) rats [5]; [14]): 0.0098 ± 0.0014 g | Adrenal gland Right weight (ovariectomy (OVX) rats [5]; [14]): 0.0098 ± 0.0014 g | Brain weight (ovariectomy (OVX) rats [5]; [14]): 0.6126 ± 0.02 | Femur Left weight (ovariectomy (OVX) rats [5]; [14]): 0.3335 ± 0.02 g | Femur Right weight (ovariectomy (OVX) rats [5]; [14]): 0.3302 ± 0.02 g | Kidney: Left weight (ovariectomy (OVX) rats [5]; [14]): 0.2977 ± 0.01 g | Kidney: Right weight (ovariectomy (OVX) rats [5]; [14]): 0.2926 ± 0.02 g | Liver weight (ovariectomy (OVX) rats [5]; [14]): 2.5220 ± 0.15 g | Pituitary weight (ovariectomy (OVX) rats [5]; [14]): 4.3 ± 1 mg | Spleen weight (ovariectomy (OVX) rats [5]; [14]): 0.2056 ± 0.02 g | Uterus weight (ovariectomy (OVX) rats [5]; [14]): 0.0524 ± 0.02 g | Vagina weight (ovariectomy (OVX) rats [5]; [14]): 0.0665 ± 0.02 g | weights of the reproductive organs (uterus and vagina) (ovariectomy (OVX) rats [5]; reduced by ovariectomy): not restored | bone growth marker ALP (ovariectomy (OVX) rats [6]): recovered to a normal level | ALP (ovariectomy (OVX) rats [6]; [15]): 108.5 ± 21.7 IU/l | Albumin (ovariectomy (OVX) rats [6]; [15]): 2.8 ± 0.1 g/dL | BUN (ovariectomy (OVX) rats [6]; [15]): 9.5 ± 2.3 mg/dL | GOT (ovariectomy (OVX) rats [6]; [15]): 158.0 ± 32.4 IU/l | GPT (ovariectomy (OVX) rats [6]; [15]): 20.4 ± 4.5 IU/l | Glucose (ovariectomy (OVX) rats [6]; [15]): 110.4 ± 8.7 mg/dL | HDL (ovariectomy (OVX) rats [6]; [15]): 22.8 ± 6.2 mg/dL | LDL-C (ovariectomy (OVX) rats [6]; [15]): 8.1 ± 4.2 mg/dL | Phosphorus (ovariectomy (OVX) rats [6]; [15]): 4.2 ± 0.3 mg/dL | calcium (ovariectomy (OVX) rats [6]; [15]): 6.8 ± 0.3 mg/dL | tumor growth (FIG. 4) ([7]; Colo205 xenograft mice): tumor growth was slowed down after 12 days | tumor growth and size of tumor (FIG. 5) ([7]; Colo205 xenograft mice): tumor growth became dull and a size of tumor was reduced after 2 or 3 weeks from the dose | MTV (n) Day 28 ([7]; 0.83 mg/kg po): 864 (10) mm^3 | Deaths NTR ([7]; 0.83 mg/kg po): 0 | % TGI [7]: 8% | Deaths TR ([7]; 0.83 mg/kg po): 0 | extension of survival versus control (multiple myeloma (MM); 80 mg/kg orally 3 times per day, 83 versus 58 days): 43% | survival after tumor inoculation (multiple myeloma (MM); 80 mg/kg orally 3 times per day, control group survived 58 days): 83 days | tumor growth (FIG. 8) (multiple myeloma (MM); text result versus control group): stopped or at least became dull
